Assay [1] has as its target T1, Serine/threonine-protein kinase DCLK1 (Homo sapiens) (UniProt O15075).
T1 sequence (whole entry): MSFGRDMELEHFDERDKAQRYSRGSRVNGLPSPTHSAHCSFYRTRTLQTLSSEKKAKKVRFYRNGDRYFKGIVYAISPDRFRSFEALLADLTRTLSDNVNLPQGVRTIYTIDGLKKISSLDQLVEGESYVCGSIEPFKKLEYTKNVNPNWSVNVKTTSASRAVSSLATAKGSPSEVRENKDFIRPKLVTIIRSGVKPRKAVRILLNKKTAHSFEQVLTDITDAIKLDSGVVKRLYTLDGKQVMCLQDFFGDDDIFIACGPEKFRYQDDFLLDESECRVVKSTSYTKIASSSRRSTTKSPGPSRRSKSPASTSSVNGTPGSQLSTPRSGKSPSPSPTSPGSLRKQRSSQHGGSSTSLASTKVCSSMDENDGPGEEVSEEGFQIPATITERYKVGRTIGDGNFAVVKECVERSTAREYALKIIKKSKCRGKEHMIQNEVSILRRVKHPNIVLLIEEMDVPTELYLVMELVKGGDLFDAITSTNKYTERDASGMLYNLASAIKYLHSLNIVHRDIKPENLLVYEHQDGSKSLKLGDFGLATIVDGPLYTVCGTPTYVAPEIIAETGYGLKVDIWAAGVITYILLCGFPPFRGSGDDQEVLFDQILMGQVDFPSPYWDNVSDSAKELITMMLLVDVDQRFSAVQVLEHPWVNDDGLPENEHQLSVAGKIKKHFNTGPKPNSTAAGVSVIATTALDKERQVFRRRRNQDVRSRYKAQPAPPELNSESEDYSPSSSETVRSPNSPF
Put plainly: Selectivity interaction (KinomeScan (DiscoverX)) EUB0000595a DCLK1. The conditions noted are these: at 10 µM.

The target of assay [2] is T2, Serine/threonine-protein kinase haspin (Homo sapiens) (UniProt Q8TF76).
T2 sequence (whole entry): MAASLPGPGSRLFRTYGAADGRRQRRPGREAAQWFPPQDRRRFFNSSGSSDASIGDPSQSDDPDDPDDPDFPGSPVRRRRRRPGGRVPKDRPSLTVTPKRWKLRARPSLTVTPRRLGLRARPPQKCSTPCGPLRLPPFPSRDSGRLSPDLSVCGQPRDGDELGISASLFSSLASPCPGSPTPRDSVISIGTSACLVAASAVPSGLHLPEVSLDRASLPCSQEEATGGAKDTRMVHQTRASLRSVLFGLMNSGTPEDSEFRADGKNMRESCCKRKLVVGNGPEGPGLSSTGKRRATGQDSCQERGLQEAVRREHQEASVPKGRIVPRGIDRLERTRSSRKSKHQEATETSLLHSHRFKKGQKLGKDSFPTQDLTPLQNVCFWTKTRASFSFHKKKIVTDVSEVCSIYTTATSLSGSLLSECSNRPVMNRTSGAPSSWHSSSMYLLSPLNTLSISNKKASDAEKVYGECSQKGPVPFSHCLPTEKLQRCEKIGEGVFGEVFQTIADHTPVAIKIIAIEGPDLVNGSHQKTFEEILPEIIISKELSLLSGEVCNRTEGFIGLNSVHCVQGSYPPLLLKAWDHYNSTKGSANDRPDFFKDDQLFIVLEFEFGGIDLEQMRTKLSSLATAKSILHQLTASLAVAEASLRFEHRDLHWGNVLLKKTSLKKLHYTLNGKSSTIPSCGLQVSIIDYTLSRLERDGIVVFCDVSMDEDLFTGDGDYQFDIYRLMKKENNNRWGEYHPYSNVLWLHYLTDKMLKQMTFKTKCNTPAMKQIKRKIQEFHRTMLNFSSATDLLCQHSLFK
Put plainly: Selectivity interaction (KinomeScan (DiscoverX)) EUB0001619a GSG2. The conditions noted are these: at 1 µM.

The target of assay [3] is Phosphatidylinositol 4-phosphate 5-kinase type-1 alpha (Homo sapiens) (UniProt Q99755). Put plainly: Selectivity interaction (KinomeScan (DiscoverX)) EUB0000666a PIP5K1A. The conditions noted are these: at 10 µM.
The target in assay [4] is Fibroblast growth factor receptor 3 (Homo sapiens, UniProt P22607). Put plainly: (§1) Selectivity interaction (KinomeScan (DiscoverX)) EUB0000607a FGFR3. The conditions noted are these: at 10 µM.
The test system of assay [5] is Fibroblast growth factor receptor 3 (Homo sapiens), P22607 [G697C]. Described as §1. The conditions noted are these: at 10 µM.
For assay [6], the target named is Mitogen-activated protein kinase 6 (Homo sapiens) (UniProt Q16659). Put plainly: Selectivity interaction (KinomeScan (DiscoverX)) EUB0000045b MAPK6.
Assay [7] has as its target T3, Aurora kinase A (Homo sapiens) (UniProt O14965).
T3 sequence (whole entry): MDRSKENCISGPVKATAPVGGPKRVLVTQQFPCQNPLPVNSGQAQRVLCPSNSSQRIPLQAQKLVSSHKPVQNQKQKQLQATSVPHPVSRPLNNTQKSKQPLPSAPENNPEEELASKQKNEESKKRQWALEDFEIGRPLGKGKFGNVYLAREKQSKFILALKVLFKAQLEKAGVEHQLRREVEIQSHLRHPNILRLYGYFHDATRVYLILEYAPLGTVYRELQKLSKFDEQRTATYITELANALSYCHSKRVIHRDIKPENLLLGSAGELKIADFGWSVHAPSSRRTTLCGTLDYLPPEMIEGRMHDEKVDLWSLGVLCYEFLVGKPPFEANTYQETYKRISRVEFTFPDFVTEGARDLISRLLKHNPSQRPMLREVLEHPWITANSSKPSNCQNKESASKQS
Put plainly: Selectivity interaction (Kinase panel (Carna Biosciences)) EUB0001542aTs STK6. The conditions noted are these: at 1 µM.

Assay [8] has as its target Death-associated protein kinase 1 (Homo sapiens, UniProt P53355). Put plainly: Selectivity interaction (KinomeScan (DiscoverX)) EUB0000618a DAPK1. The conditions noted are these: at 10 µM.

Molecules are shown by their SMILES.

Sequence of Mitogen-activated protein kinase 6 (Homo sapiens) (Q16659 whole entry): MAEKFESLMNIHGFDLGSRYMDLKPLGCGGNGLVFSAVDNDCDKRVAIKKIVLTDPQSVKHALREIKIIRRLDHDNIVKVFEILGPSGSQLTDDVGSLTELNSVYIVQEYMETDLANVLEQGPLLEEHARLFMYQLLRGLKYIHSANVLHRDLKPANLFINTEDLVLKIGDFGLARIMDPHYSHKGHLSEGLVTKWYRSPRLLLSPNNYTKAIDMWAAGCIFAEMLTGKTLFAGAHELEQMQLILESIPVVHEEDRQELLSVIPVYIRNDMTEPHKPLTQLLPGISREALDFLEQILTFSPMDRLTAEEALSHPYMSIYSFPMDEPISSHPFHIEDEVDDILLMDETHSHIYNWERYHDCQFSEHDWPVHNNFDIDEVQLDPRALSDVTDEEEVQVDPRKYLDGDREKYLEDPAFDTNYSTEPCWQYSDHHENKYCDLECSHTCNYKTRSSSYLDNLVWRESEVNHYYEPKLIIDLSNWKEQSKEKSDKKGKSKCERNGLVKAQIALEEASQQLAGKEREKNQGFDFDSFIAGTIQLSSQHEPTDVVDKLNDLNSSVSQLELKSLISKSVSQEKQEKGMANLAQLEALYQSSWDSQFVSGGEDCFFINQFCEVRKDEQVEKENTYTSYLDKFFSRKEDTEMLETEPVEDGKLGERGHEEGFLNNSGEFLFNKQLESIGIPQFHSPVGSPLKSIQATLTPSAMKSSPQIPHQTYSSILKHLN
Sequence of Phosphatidylinositol 4-phosphate 5-kinase type-1 alpha (Homo sapiens) (Q99755 whole entry): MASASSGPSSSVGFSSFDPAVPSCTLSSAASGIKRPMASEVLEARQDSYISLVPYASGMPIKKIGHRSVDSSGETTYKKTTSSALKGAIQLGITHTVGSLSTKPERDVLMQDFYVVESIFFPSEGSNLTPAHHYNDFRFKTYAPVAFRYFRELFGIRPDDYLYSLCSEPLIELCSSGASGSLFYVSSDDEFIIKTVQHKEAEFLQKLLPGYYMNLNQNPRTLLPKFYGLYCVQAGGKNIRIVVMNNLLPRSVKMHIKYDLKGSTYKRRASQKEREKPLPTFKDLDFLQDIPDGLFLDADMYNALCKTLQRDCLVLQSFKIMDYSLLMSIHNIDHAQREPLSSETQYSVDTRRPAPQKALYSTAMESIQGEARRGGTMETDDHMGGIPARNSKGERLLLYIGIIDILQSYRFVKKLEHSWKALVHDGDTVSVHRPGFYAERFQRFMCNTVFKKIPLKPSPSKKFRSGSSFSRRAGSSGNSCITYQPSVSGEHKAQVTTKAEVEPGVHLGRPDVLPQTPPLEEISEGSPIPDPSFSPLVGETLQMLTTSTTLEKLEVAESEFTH
Sequence of Fibroblast growth factor receptor 3 (Homo sapiens), P22607 [G697C] (P22607 whole entry G697C): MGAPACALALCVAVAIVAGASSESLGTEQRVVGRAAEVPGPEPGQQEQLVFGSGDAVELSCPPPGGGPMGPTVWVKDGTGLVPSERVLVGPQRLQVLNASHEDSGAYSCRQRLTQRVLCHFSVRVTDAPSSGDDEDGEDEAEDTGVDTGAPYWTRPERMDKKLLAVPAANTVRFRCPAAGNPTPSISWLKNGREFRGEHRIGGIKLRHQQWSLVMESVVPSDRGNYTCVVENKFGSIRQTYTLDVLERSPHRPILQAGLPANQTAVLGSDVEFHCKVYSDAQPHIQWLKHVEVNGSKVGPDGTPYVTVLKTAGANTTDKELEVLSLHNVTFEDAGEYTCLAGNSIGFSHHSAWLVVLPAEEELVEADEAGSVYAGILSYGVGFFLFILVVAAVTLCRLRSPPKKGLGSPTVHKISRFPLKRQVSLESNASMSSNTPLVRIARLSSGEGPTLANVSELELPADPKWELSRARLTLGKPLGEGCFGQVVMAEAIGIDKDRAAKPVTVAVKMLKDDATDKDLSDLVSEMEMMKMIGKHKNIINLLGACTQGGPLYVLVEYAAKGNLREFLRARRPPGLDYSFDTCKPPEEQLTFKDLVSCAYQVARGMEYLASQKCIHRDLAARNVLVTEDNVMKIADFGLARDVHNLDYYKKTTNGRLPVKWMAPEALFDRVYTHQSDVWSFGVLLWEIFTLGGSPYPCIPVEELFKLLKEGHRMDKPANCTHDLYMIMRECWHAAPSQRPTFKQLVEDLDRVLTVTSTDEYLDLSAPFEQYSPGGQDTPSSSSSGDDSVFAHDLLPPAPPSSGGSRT
Sequence of Fibroblast growth factor receptor 3 (P22607 23-806 limits assumed): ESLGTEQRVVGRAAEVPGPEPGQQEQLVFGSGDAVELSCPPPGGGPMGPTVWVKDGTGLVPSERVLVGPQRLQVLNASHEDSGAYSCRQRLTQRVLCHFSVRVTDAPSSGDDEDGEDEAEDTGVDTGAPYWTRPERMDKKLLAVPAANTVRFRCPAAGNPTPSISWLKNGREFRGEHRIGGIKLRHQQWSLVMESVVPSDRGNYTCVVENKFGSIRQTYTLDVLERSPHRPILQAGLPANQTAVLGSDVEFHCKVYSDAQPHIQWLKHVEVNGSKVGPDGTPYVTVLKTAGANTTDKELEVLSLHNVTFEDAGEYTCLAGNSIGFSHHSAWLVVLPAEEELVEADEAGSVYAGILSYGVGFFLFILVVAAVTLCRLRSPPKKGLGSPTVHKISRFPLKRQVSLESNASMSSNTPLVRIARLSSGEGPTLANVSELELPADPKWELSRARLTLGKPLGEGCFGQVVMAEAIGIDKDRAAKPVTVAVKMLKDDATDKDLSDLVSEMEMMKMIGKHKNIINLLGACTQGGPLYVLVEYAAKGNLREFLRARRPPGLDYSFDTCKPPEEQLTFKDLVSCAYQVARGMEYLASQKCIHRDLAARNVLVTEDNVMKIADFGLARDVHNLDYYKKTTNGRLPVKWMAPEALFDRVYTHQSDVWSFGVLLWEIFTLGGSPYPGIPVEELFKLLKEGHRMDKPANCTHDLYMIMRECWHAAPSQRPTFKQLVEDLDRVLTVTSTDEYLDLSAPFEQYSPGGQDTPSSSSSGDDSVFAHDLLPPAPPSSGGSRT
Sequence of Death-associated protein kinase 1 (P53355 whole entry, looked up): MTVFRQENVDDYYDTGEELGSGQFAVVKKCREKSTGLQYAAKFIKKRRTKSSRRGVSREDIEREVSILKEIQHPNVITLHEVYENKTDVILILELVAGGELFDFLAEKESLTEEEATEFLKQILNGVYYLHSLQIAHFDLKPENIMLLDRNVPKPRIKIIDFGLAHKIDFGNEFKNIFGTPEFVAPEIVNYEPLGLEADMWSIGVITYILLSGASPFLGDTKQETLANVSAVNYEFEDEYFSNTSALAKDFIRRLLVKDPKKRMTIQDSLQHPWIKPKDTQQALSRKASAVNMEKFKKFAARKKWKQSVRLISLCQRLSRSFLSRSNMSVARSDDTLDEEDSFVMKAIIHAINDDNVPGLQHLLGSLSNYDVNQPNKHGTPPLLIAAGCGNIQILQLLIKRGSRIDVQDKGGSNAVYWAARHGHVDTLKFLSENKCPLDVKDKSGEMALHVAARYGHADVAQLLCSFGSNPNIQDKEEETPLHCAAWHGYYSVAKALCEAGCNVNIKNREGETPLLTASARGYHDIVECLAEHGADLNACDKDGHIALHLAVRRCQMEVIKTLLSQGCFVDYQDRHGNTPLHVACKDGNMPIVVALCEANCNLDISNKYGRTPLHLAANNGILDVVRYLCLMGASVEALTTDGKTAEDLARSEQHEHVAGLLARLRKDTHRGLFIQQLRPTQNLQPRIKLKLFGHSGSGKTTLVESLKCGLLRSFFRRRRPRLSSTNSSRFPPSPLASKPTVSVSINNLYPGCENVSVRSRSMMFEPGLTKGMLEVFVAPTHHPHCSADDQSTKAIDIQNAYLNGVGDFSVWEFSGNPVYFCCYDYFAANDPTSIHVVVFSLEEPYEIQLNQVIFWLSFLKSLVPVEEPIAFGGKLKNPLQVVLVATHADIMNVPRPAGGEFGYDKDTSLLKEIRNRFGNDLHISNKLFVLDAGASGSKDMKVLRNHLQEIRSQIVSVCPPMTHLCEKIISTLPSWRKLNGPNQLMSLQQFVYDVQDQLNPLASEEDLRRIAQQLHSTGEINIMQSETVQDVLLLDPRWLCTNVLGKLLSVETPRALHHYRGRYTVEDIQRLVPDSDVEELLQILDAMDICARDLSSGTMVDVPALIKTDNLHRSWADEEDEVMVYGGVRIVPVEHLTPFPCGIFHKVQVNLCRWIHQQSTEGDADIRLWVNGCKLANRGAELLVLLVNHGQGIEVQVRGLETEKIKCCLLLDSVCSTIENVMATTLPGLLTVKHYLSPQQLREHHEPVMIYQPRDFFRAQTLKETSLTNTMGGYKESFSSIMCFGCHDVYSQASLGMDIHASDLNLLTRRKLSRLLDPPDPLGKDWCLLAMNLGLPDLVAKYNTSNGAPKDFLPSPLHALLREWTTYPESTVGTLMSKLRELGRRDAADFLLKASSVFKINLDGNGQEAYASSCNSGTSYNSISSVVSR

The molecule `COCC(=O)NC/C=C/c1ccc2ncnc(Nc3ccc(Oc4ccc(C)nc4)c(C)c3)c2c1` [CP-724714] came in with a % of control in assay [1] of 100%. Molecule `N#Cc1cccc(-c2c[nH]c3ncnc(N4CCOCC4)c23)c1` returned a % of control in assay [2] of 46%. In assay [3], `O=C(NOC[C@H](O)CO)c1ccc(F)c(F)c1Nc1ccc(I)cc1F` came in with a % of control of 91%.

On to `CNC(=O)Nc1ccc(-c2nc(N3CC4CCC(C3)O4)c3cnn(C4CCC5(CC4)OCCO5)c3n2)cc1`, for which the % of control in assay [4] was determined as 83%; in assay [5], 74%. As for `C=CC(=O)Nc1cc(-n2c(=O)ccc3cnc4ccc(-c5ccc(NS(C)(=O)=O)cc5)cc4c32)ccc1C`, the results for the % of control in assay [6] (at 1 µM) and in assay [6] (at 10 µM) were 82% and 100%, respectively.

In turn, `Cn1cc(Nc2nccc(N3CC4CCC(C3)N4C(=O)[C@@H]3CC3(F)F)n2)cn1` showed a % of inhibition in assay [7] of 97%. `O[C@H]1CC[C@H](Nc2ncc3nc(Nc4c(F)cc(F)cc4F)n([C@H]4CCOC4)c3n2)CC1` registered a % of control in assay [8] of 95%.

The record behind these values is ChEMBL document CHEMBL5465560, “Selectivity Literature for EUbOPEN Chemogenomic Library” (2024).
